Results published in patent US7842324B2 (Senomyx, Inc., priority 2005, dated 2010).

Columns and labels:
tasters [1] = assay: Reduced sugar dry beverage mix (strawberry beverage) sensory evaluation; type: in vivo, human; details: ⅔ sugared strawberry beverage + 1.3 ppm, scale 1 to 10
Experimental: 1000.00 g of the finished beverage was formulated. Compound 23 was diluted with maltodextrin (1:100) to form a sweetener concentrate composition prior to addition to the other dry beverage base ingredients. 50 g of the maltodextrin was placed on the bottom of a clean and dried mortar and 1.0000 g of compound 23 was added and slowly ground into the maltodextrin with the pestle. The remaining maltodextrin was added to a planetary mixer with a wire whip attachment (KITCHEN AIDE™ Mixer), and the contents of the mortar were placed into the mixer and the mixer was turned on to a slow speed (setting 3) and allowed to mix for an additional 10 minutes.
The contents of the glass container were re-mixed in the glass container before taking out aliquots of the dry diluted sweet enhancer. Using the KITCHEN AIDE™ Mixer with the wire whip attachment, the granulated ingredients of the beverage base (sugar, acid) were mixed slowly at speed 2 using the wire whip attachment for 3 minutes and 0.13 grams of the 1:100 diluted solid sweetener concentrate composition was added and mixed at speed 3 for 5 minutes. Calcium silicate was added and allowed to mix for another 5 minutes until the silicate was evenly dispersed. The dry flavor and dry color were added last and allowed to mix for another 10 minutes. A plastic spatula was used to scrape the inside of the mixing bowl to ensure complete recovery of the dry beverage base composition.
The water was placed in a stainless steel 3 L cylinder and a LIGHTNIN™ Mixer was set at 500 to 650 rpms using a 2.5 inch (6.35 cm) impeller with three straight blades. This was used to create a vortex in the water. The impeller blades were positioned at a 30 to 45° angle. The dry beverage base (53.525 grams) was slowly added to the vortex of the water and was mixed for an additional 5 minutes until all the sugar and acids had dissolved.
Samples of control sugared strawberry beverages containing sugar at the full level indicated above (50, 66.67, 80, 90, and 100% of full sugar), and the strawberry beverage comprising ⅔ sugar+1.3 ppm compound 23 were given to tasters in randomized order. Tasters used an anchored scale from 1 to 10 (1 being no sweetness, 10 being intense sweetness). Tasters were instructed to hold the beverage in their mouth for at least 5 seconds, expectorate the sample, and evaluate/rank the “peak” of sweetness intensity of their various samples. They were allowed to re-taste and re-position their samples on the physical line scale. Once satisfied with their rankings, they wrote down their code and corresponding rank score.

tasters [2] = assay: Reduced sugar soda syrup (strawberry soda) sensory evaluation; type: in vivo, human; details: scale 1 to 10
Experimental: 1000.00 g of the ⅔ sugared syrup comprising compound 23 was formulated in the following manner. Compound 23 was diluted with maltodextrin (1:100) to make a sweetener concentrate composition for addition to the soda syrup formulation. An alternative method is to make a solution of amide compound in propylene glycol that can be added directly into the liquid soda syrup formulation. A 100 g batch of dry sweetener concentrate composition was produced by weighing 1.000 g of the enhancer and 99.0000 g of 10 D.E. maltodextrin. 50 g of the maltodextrin was placed on the bottom of a clean and dried mortar and the 1.0000 g of amide compound was added and slowly mixed into the maltodextrin. In a planetary mixer with a wire whip attachment (KITCHEN AIDE™ Mixer), the rest of the maltodextrin was added to the mixing bowl, and the contents of the mortar was placed into the mixer and the mixer was turned on to a slow speed (setting 3). A rubber spatula was used to remove the contents of the mortar and the contents were allowed to mix for an additional 10 minutes. A rubber spatula was used to scrap the walls and bottom of the bowl. The mixture was blended on low for another 15 minutes. The […] sweetener concentrate composition was stored in an air tight amber glass container. […]

`CC(C)CNC(=O)C(C)(C)c1ccc(-c2cncc(C#N)c2)cc1` [Compound 23, 2-(4-(5-cyanopyridin-3-yl)phenyl)-N-isobutyl-2-methylpropanamide] was tested, and the “Sweet Score from Individual Tastors #1” value (tasters [1]) was 8, the “Sweet Score from Individual Tastors #2” value (tasters [1]) was 7 and the “Sweet Score from Individual Tastors #3” value (tasters [1]) was 7. The “Sweet Score from Individual Tastors #4” value (tasters [1]) was 8, the “Sweet Score from Individual Tastors #5” value (tasters [1]) was 7.5 and the “Sweet Score from Individual Tastors #6” value (tasters [1]) was 7. For the same compound, the “Sweet Score from Individual Tastors #7” value (tasters [1]) was 8, the “Sweet Score from Individual Tastors #8” value (tasters [1]) was 8 and the “Average Scores” value (tasters [1]; mean of eight tasters) was 7.56. The “Average Sweet Intensity Score” value (tasters [2]; ⅔ sugared with HFCS strawberry soda + 1.0 ppm) was 6.429 and the “Average Sweet Intensity Score” value (tasters [2]; ⅔ sugared with HFCS strawberry soda + 1.3 ppm) was 7.214.
